{
  "source": "patent US5932709A",
  "about": "(University of Michigan, priority 1997, dated 1999)",
  "key": {"[1]": {"experiment": "Water solubility in phosphate buffered saline (spectrophotometric assay)", "assay_type": "physicochemical", "method": "Approximately 5 mg of test compound was suspended in 1 mL of PBS in a 1.5 mL cryovial. The suspensions were mixed continuously on a Thermolyne vari-mix at room temperature for 24 hr. The suspensions were then centrifuged at 14000×g for 2 minutes to separate the undissolved materials. The supernatant fluids were diluted appropriately with PBS and the ultraviolet spectrums were recorded on a Beckman 640 DU spectrophotometer. For comparison, a standard stock (2 mg/mL in DMSO) solution was prepared for each analog. The ultraviolet spectrum of a 20 of 40 μg/mL standard working solution was measured. The water solubility of each analog was calculated based on the following formula:\nCunknown =Cstandard ×(Aunknown\nwhere Cunknown is the concentration of the unknown solution to be determined; Cstandard is the concentration of the standard working solution (either 20 or 40 μg/mL); Astandard is the absorbance at 350 nm of the standard working solution; DDilution is the appropriate dilution factor used so that the absorbance of the unknown working solution is within the dynamic range of the UV spectrophotometer (less than 2 absorbance units)."}, "[2]": {"system": "MX-1 human breast tumor xenograft", "experiment": "in vivo", "description": "For all the models, the vehicle used to deliver the analog of interest was isotonic saline.\nFor the MX-1 human breast tumor xenograft models, the following procedure was used. Nude mice are implanted s.c. by trocar with fragments of MX-1 mammary carcinomas harvested from s.c. growing MX-1 tumors in nude mice hosts. When tumors are approximately 5 mm×5 mm in size (usually about ten days after inoculation), the animals are pair-matched into treatment and control groups. Each group contains ten tumored mice, each of which is ear-tagged and followed individually throughout the experiment. The administration of drugs or vehicle begins the day the animals are pair-matched (day 1). The doses, route of drug administration and schedule are selected as appropriate for the study in question. If the MTD dose of an agent is not known, it is determined in an initial dosing experiment in non-tumored mice. In a typical experiment, drugs are given at their MTD and 1/2 MTD doses i.p. on a daily×5 schedule.\nThe experiment is usually terminated when control tumors reach a size of 2-3 g. Mice are weighed twice weekly, and tumor measurements are taken by calipers twice weekly, starting on day 1. These tumor measurements are converted to mg tumor weight by a well known formula, and from these calculated tumor weights the termination date can be determined. Upon termination, all mice are weighed, sacrificed, and their tumors excised. Tumors are weighed, and the mean tumor weight per group is calculated.\nSome drugs cause tumor shrinkage in the MX-1 model. With these agents, the final weight of a given tumor is subtracted from its own weight at the start of the treatment on day 1. This difference divided by the initial tumor weight is the % shrinkage. A mean % tumor shrinkage can be calculated from data from the mice in a group that experienced MX-1 regressions. If the tumor completely disappears in a mouse, this is considered a complete regression or complete tumor shrinkage. If desired, mice with partial or total tumor regressions can be kept alive past the termination date to see whether they live to become long term, tumor-free survivors.\nNote that in the following table the abbreviation SR refers to tumor shrinkage rate, while those entries followed by a superscripted `2` are tumor growth inhibition rates, not tumor shrinkage rates."}, "[3]": {"system": "murine B16 melanoma", "experiment": "Murine B16 melanoma model in vivo", "parameters": "species or system mouse (B6D2F1)", "settings": "for Survivors: 60-day", "method": "1) Murine B16 Melanoma Model\n(§1) For the B16 melanoma model, the following procedure was used. B6D2F1 mice receive i.p. inocula of B16 murine melanoma brei prepared from B16 tumors growing s.c. in mice (day 0). […] If dosing information for agents is not available, the maximum tolerated dose (MTD) is determined in initial dose finding experiments in non-tumored mice.\n(§2) The mean survival times of all groups are calculated, and results are expressed as mean survival of treated mice/mean survival of control mice (T/C)×100%. A T/C value of 150 means that the mice in the treated group lived 50% longer than those of the control group; this is sometimes referred to as the increase in life span or ILS value.\nMice that survive for 60 days are considered long-term survivors, or cures, in the B16 model. The universally accepted cut-off for activity in this model, which has been for years by the National Cancer Institute, is T/C=125. Conventional use of B16 over the years has set the following levels of activity: T/C<125, no activity, T/C=125-150, weak activity; T/C=150-200, modest activity; T/C=200-300, high activity; T/C>300, with long term survivors; excellent, curative activity."}, "[4]": {"system": "murine P388 leukemia", "experiment": "Murine P388 leukemia model in vivo", "parameters": "species or system mouse (B6D2F1)", "settings": "for Survivors: 30-day", "method": "as §1, §2\nFor the P388 leukemia model, the procedure followed is exactly the same as the aforementioned B16 model. The tumor inoculum is prepared by removing ascited fluid containing P388 cells from tumored B6D2F1 mice, centrifuging the cells, and then resuspending the leukemia cells in saline. Mice receive 1×10^6 P388 cells i.p. on day 0."}},
  "note": "“Also recorded” adds a separate entry of the source.",
  "data": [
    {"molecule": "CC[C@@]1(O)C(=O)OCc2c1cc1n(c2=O)Cc2c-1nc1ccccc1c2CO[C@@H]1C=C[C@H](O)[C@@H](CO)O1", "note": "[HAR7, 7-[2,3-dideoxy-α-D-erythro-hex-2-enopyranosyl]-oxymethylcamptothecin]", "values": [
      {"measurement": "solubility at 24 h", "setting": "[1]; aqueous buffer, water solubility, PBS pH 7.5, room temperature, 24 hr", "value": 62, "unit": "µg/mL"},
      {"measurement": "water solubility improvement", "setting": "[1]; compared to camptothecin", "value": 16, "unit": "fold"},
      {"measurement": "mice with tumor shrinkage", "setting": "[2]; 20 mg/kg", "value": 10},
      {"measurement": "SR(%) (Tumor Shrinkage Rate)", "setting": "[2]; 20 mg/kg i.p. daily×5", "value": 98, "unit": "%"},
      {"measurement": "Shrinkage (animals)", "setting": "[2]; 20 mg/kg i.p. daily×5", "value": "10/10"},
      {"measurement": "Tox Deaths", "setting": "[2]; 20 mg/kg i.p. daily×5", "value": "0/10"},
      {"measurement": "ΔWeight (%)", "setting": "[2]; 20 mg/kg i.p. daily×5", "value": -0.05, "unit": "%"},
      {"measurement": "weight loss", "setting": "[2]; 20 mg/kg, in words", "value": "virtually no weight loss"},
      {"measurement": "SR(%) (Tumor Shrinkage Rate)", "setting": "[2]; 40 mg/kg i.p. daily×5", "value": 98, "unit": "%"},
      {"measurement": "Shrinkage (animals)", "setting": "[2]; 40 mg/kg i.p. daily×5", "value": "5/10"},
      {"measurement": "Tox Deaths", "setting": "[2]; 40 mg/kg i.p. daily×5", "value": "4/10"},
      {"measurement": "ΔWeight (%)", "setting": "[2]; 40 mg/kg i.p. daily×5", "value": -25.0, "unit": "%"},
      {"measurement": "toxicity", "setting": "[2]; 40 mg/kg, in words", "value": "produced lethality"},
      {"measurement": "antitumor activity vs. MX-1", "setting": "[2]; in words", "value": "almost equivalent, outstanding activity"},
      {"measurement": "cures", "setting": "[3]; 20 mg/kg", "value": "no cures"},
      {"measurement": "T/C (mean survival treated/control)", "setting": "[3]; 20 mg/kg i.p. daily×5", "value": 191, "unit": "%"},
      {"measurement": "Tox Deaths", "setting": "[3]; 20 mg/kg i.p. daily×5", "value": "0/10"},
      {"measurement": "ΔWeight (%)", "setting": "[3]; 20 mg/kg i.p. daily×5", "value": -0.1, "unit": "%"},
      {"measurement": "Survivors", "setting": "[3]; 20 mg/kg i.p. daily×5", "value": "0/10"},
      {"measurement": "T/C (mean survival treated/control)", "setting": "[3]; 40 mg/kg i.p. daily×5", "value": 205, "unit": "%"},
      {"measurement": "Tox Deaths", "setting": "[3]; 40 mg/kg i.p. daily×5", "value": "0/10"},
      {"measurement": "ΔWeight (%)", "setting": "[3]; 40 mg/kg i.p. daily×5", "value": -7.9, "unit": "%"},
      {"measurement": "Survivors", "setting": "[3]; 40 mg/kg i.p. daily×5", "value": "1/10"},
      {"measurement": "60-day survivors", "setting": "[3]; dose not stated", "value": "one"},
      {"measurement": "T/C (mean survival treated/control)", "setting": "[4]; 20 mg/kg i.p. daily×5", "value": 192, "unit": "%"},
      {"measurement": "Tox Deaths", "setting": "[4]; 20 mg/kg i.p. daily×5", "value": "0/10"},
      {"measurement": "ΔWeight (%)", "setting": "[4]; 20 mg/kg i.p. daily×5", "value": -1.7, "unit": "%"},
      {"measurement": "Survivors", "setting": "[4]; 20 mg/kg i.p. daily×5", "value": "0/10"},
      {"measurement": "T/C (mean survival treated/control)", "setting": "[4]; 40 mg/kg i.p. daily×5", "value": 223, "unit": "%"},
      {"measurement": "Tox Deaths", "setting": "[4]; 40 mg/kg i.p. daily×5", "value": "0/10"},
      {"measurement": "ΔWeight (%)", "setting": "[4]; 40 mg/kg i.p. daily×5", "value": -16.0, "unit": "%"},
      {"measurement": "Survivors", "setting": "[4]; 40 mg/kg i.p. daily×5", "value": "3/10"},
      {"measurement": "30-day survivors", "setting": "[4]; 40 mg/kg, high dose", "value": "three"},
      {"measurement": "toxic deaths", "setting": "[4]; at the high dose", "value": "no toxic deaths occurred"},
      {"measurement": "weight loss", "setting": "[4]; at the high dose (MTD)", "value": "12%-16"},
      {"measurement": "efficacy vs P388 leukemia", "setting": "[4]; i.p. five day schedule, in words", "value": "high, curative efficacy; also recorded: excellent activity vs. P388"}
    ]}
  ]
}
